Measured values taken from ChEMBL document CHEMBL1201861, “Genomics of Drug Sensitity in Cancer screening data, Wellcome Trust Sanger Institute”.

Key:
Test in all cases: cells
MCF7 = assay type: functional, cell-based, Homo sapiens;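 also: growth inhibition of human MCF7 cells, read out with a cell viability assay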
Description: SANGER: Inhibition of human MCF7 cell growth in a cell viability assay.

U2OS = assay type: functional, cell-based, Homo sapiens, U-2-OS;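 also: growth inhibition of human U-2-OS cells, determined with a cell viability assay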
Description: SANGER: Inhibition of human U-2-OS cell growth in a cell viability assay.

PANC-03-27 = assay type: functional, cell-based, Homo sapiens
Description: SANGER: Inhibition of human PANC-03-27 cell growth in a cell viability assay.

HT-3 = assay type: functional, cell-based, Homo sapiens;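 also: growth inhibition measured with a cell viability readout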
Description: SANGER: Inhibition of human HT-3 cell growth in a cell viability assay.

SK-MEL-24 = assay type: functional, cell-based, Homo sapiens;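 also: growth inhibition read out by a cell viability assay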
Description: SANGER: Inhibition of human SK-MEL-24 cell growth in a cell viability assay.

G-361 = assay type: functional, cell-based, Homo sapiens
SK-N-AS = assay type: functional, cell-based, Homo sapiens;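 also: growth inhibition of human SK-N-AS cells, measured with a cell viability assay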
Description: SANGER: Inhibition of human SK-N-AS cell growth in a cell viability assay.

CHP-212 = assay type: functional, cell-based, Homo sapiens
Description: SANGER: Inhibition of human CHP-212 cell growth in a cell viability assay.

NCI-H2029 = assay type: functional, cell-based, Homo sapiens;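 also: Read-out is a viability assay on the cultured cells, and IC50 is the concentration that suppresses cell growth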
Description: SANGER: Inhibition of human NCI-H2029 cell growth in a cell viability assay.

LCLC-97TM1 = assay type: functional, cell-based, Homo sapiens;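 also: cell viability assay measuring growth inhibition of human LCLC-97TM1 cells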
Description: SANGER: Inhibition of human LCLC-97TM1 cell growth in a cell viability assay.

COLO-792 = assay type: functional, cell-based, Homo sapiens
Description: SANGER: Inhibition of human COLO-792 cell growth in a cell viability assay.

BPH-1 = assay type: functional, cell-based, Homo sapiens;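 also: cell viability assay measuring growth inhibition of human BPH-1 cells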
Description: SANGER: Inhibition of human BPH-1 cell growth in a cell viability assay.

LoVo = assay type: functional, cell-based, Homo sapiens;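 also: growth inhibition of human LoVo cells, read out with a cell viability assay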
Description: SANGER: Inhibition of human LoVo cell growth in a cell viability assay.

T84 = assay type: functional, cell-based, Homo sapiens;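 also: growth inhibition measured with a cell viability readout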
Description: SANGER: Inhibition of human T84 cell growth in a cell viability assay.

HT-29 = assay type: functional, cell-based, Homo sapiens;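 also: growth inhibition of human HT-29 cells, read out by a cell viability assay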
Description: SANGER: Inhibition of human HT-29 cell growth in a cell viability assay.

U-251 = assay type: functional, cell-based, Homo sapiens;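 also: growth inhibition of human U-251 cells, read out through a cell viability assay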
Description: SANGER: Inhibition of human U251 cell growth in a cell viability assay.

KP-4 = assay type: functional, cell-based, Homo sapiens;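 also: human KP-4 cells, with growth inhibition read out through a cell viability assay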
Description: SANGER: Inhibition of human KP-4 cell growth in a cell viability assay.

IGROV-1 = assay type: functional, cell-based, Homo sapiens;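 also: reduction of IGROV-1 cell growth, read out with a viability assay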
Description: SANGER: Inhibition of human IGROV-1 cell growth in a cell viability assay.

Panc1005 = assay type: functional, cell-based, Homo sapiens;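 also: growth inhibition of human PANC-10-05 cells, measured by a cell viability assay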
Description: SANGER: Inhibition of human PANC-10-05 cell growth in a cell viability assay.

NCI-H1703 = assay type: functional, cell-based, Homo sapiens;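 also: growth inhibition of NCI-H1703 cells, read out via a cell viability assay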
Description: SANGER: Inhibition of human NCI-H1703 cell growth in a cell viability assay.

CAL-72 = assay type: functional, cell-based, Homo sapiens;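 also: cell viability assay measuring inhibition of proliferation in the CAL-72 cell line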
Description: SANGER: Inhibition of human CAL-72 cell growth in a cell viability assay.

ChaGo-K-1 = assay type: functional, cell-based, Homo sapiens;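 also: growth inhibition of ChaGo-K-1 cells, read out with a cell viability assay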
Description: SANGER: Inhibition of human ChaGo-K-1 cell growth in a cell viability assay.

KYSE-520 cell line = assay type: functional, cell-based, Homo sapiens;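 also: growth inhibition of human KYSE-520 cells, read out with a viability assay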
Description: SANGER: Inhibition of human KYSE-520 cell growth in a cell viability assay.

BT-20 = assay type: functional, cell-based, Homo sapiens;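 also: cell viability assay measuring suppression of growth in human BT-20 cells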
Description: SANGER: Inhibition of human BT-20 cell growth in a cell viability assay.

NCI-H460 = assay type: functional, cell-based, Homo sapiens;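 also: cell viability assay scoring growth inhibition of human NCI-H460 cells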
Description: SANGER: Inhibition of human NCI-H460 cell growth in a cell viability assay.

OC-314 = assay type: functional, cell-based, Homo sapiens
Description: SANGER: Inhibition of human OC-314 cell growth in a cell viability assay.

SW837 = assay type: functional, cell-based, Homo sapiens;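 also: growth inhibition of SW837 cells, determined with a cell viability assay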
Description: SANGER: Inhibition of human SW837 cell growth in a cell viability assay.

BHY = assay type: functional, cell-based, Homo sapiens;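 also: cell growth inhibition read out by a viability assay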
Description: SANGER: Inhibition of human BHY cell growth in a cell viability assay.

HuP-T4 = assay type: functional, cell-based, Homo sapiens;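 also: cell viability assay measuring how much HuP-T4 cell growth is inhibited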
Description: SANGER: Inhibition of human HuP-T4 cell growth in a cell viability assay.

NUGC-3 = assay type: functional, cell-based, Homo sapiens;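 also: growth inhibition of human NUGC-3 cells, read out with a cell viability assay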
Description: SANGER: Inhibition of human NUGC-3 cell growth in a cell viability assay.

HT55 = assay type: functional, cell-based, Homo sapiens;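 also: cell viability readout measuring growth inhibition of human HT55 cells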
Description: SANGER: Inhibition of human HT55 cell growth in a cell viability assay.

NCI-H522 = assay type: functional, cell-based, Homo sapiens; conditions: Homo sapiens, NCI-H522;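 also: cell viability assay measuring growth inhibition of human NCI-H522 cells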
Description: SANGER: Inhibition of human NCI-H522 cell growth in a cell viability assay.

Molecule: Cc1cn(-c2cc(NC(=O)c3ccc(C)c(Nc4nccc(-c5cccnc5)n4)c3)cc(C(F)(F)F)c2)cn1 [NILOTINIB]
- IC50 (MCF7; Homo sapiens, MCF7): > 2 µM
- IC50 (U2OS; Homo sapiens, U2OS): > 2 µM
- IC50 (PANC-03-27; Homo sapiens, PANC-03-27): > 2 µM
- IC50 (HT-3; Homo sapiens, HT-3): > 2 µM
- IC50 (SK-MEL-24; Homo sapiens, SK-MEL-24): > 2 µM
- IC50 (G-361; Homo sapiens, G-361): > 2 µM
- IC50 (SK-N-AS; Homo sapiens, SK-N-AS): > 2 µM
- IC50 (CHP-212; Homo sapiens, CHP-212): > 2 µM
- IC50 (NCI-H2029; Homo sapiens, NCI-H2029): > 2 µM
- IC50 (LCLC-97TM1; Homo sapiens, LCLC-97TM1): > 2 µM
- IC50 (COLO-792; Homo sapiens, COLO-792): > 2 µM
- IC50 (BPH-1; Homo sapiens, BPH-1): > 2 µM
- IC50 (LoVo; Homo sapiens, LoVo): > 2 µM
- IC50 (T84; Homo sapiens, T84): > 2 µM
- IC50 (HT-29; Homo sapiens, HT-29): > 2 µM
- IC50 (U-251; Homo sapiens, U-251): > 2 µM
- IC50 (KP-4; Homo sapiens, KP-4): > 2 µM
- IC50 (IGROV-1; Homo sapiens, IGROV-1): > 2 µM
- IC50 (Panc1005; Homo sapiens, Panc1005): > 2 µM
- IC50 (NCI-H1703; Homo sapiens, NCI-H1703): 1.19 µM
- IC50 (CAL-72; Homo sapiens, CAL-72): > 2 µM
- IC50 (ChaGo-K-1; Homo sapiens, ChaGo-K-1): > 2 µM
- IC50 (KYSE-520 cell line; Homo sapiens, KYSE-520): > 2 µM
- IC50 (BT-20; Homo sapiens, BT-20): > 2 µM
- IC50 (NCI-H460; Homo sapiens, NCI-H460): > 2 µM
- IC50 (OC-314; Homo sapiens, OC-314): > 2 µM
- IC50 (SW837; Homo sapiens, SW837): > 2 µM
- IC50 (BHY; Homo sapiens, BHY): > 2 µM
- IC50 (HuP-T4; Homo sapiens, HuP-T4): > 2 µM
- IC50 (NUGC-3; Homo sapiens, NUGC-3): > 2 µM
- IC50 (HT55; Homo sapiens, HT55): > 2 µM

Molecule: CISPLATIN
- IC50 (MCF7; mcf7): 15.2 µM
- IC50 (U2OS; u-2-os): 13.4 µM
- IC50 (PANC-03-27; panc-03-27): 38.3 µM
- IC50 (HT-3; ht-3): 5.04 µM
- IC50 (SK-MEL-24; sk-mel-24): 43.7 µM
- IC50 (G-361; g-361): 672 µM
- IC50 (SK-N-AS; sk-n-as): 38 µM
- IC50 (CHP-212; chp-212): 25.5 µM
- IC50 (NCI-H2029; nci-h2029): 961 µM
- IC50 (LCLC-97TM1; lclc-97tm1): 19.8 µM
- IC50 (COLO-792; colo-792): 5.73 µM
- IC50 (BPH-1; bph-1): 17.9 µM
- IC50 (LoVo; lovo): 58.2 µM
- IC50 (T84; t84): 356 µM
- IC50 (HT-29; ht-29): 610 µM
- IC50 (U-251; u-251): 11.6 µM
- IC50 (KP-4; kp-4): 11.7 µM
- IC50 (IGROV-1; igrov-1): 0.343 µM
- IC50 (Panc1005; panc1005): 8.61 µM
- IC50 (NCI-H1703; nci-h1703): 148 µM
- IC50 (CAL-72; cal-72): 23.4 µM
- IC50 (ChaGo-K-1; chago-k-1): 15.2 µM
- IC50 (KYSE-520 cell line; kyse-520): 21.8 µM
- IC50 (BT-20; bt-20): 213 µM
- IC50 (NCI-H460; nci-h460): 345 µM
- IC50 (OC-314; oc-314): 14 µM
- IC50 (SW837; sw837): 190 µM
- IC50 (BHY; bhy): 49.3 µM
- IC50 (HuP-T4; hup-t4): 37.4 µM
- IC50 (NUGC-3; nugc-3): 2.14 µM
- IC50 (HT55; ht55): 118 µM

Molecule: Cn1cnc2c(F)c(Nc3ccc(Br)cc3Cl)c(C(=O)NOCCO)cc21 [SELUMETINIB]
- IC50 (MCF7; Homo sapiens, MCF7): > 4 µM
- IC50 (U2OS; Homo sapiens, U2OS): > 4 µM
- IC50 (PANC-03-27; Homo sapiens, PANC-03-27): > 4 µM
- IC50 (HT-3; Homo sapiens, HT-3): > 4 µM
- IC50 (SK-N-AS; Homo sapiens, SK-N-AS): 0.0928 µM
- IC50 (CHP-212; Homo sapiens, CHP-212): < 0.0156 µM
- IC50 (NCI-H2029; Homo sapiens, NCI-H2029): > 4 µM
- IC50 (LCLC-97TM1; Homo sapiens, LCLC-97TM1): 1.03 µM
- IC50 (COLO-792; Homo sapiens, COLO-792): 1.19 µM
- IC50 (BPH-1; Homo sapiens, BPH-1): 0.182 µM
- IC50 (LoVo; Homo sapiens, LoVo): 1.06 µM
- IC50 (T84; Homo sapiens, T84): > 4 µM
- IC50 (HT-29; Homo sapiens, HT-29): 0.873 µM
- IC50 (U-251; Homo sapiens, U-251): > 4 µM
- IC50 (NCI-H522): > 4 µM
- IC50 (IGROV-1; Homo sapiens, IGROV-1): > 4 µM
- IC50 (Panc1005; Homo sapiens, Panc1005): > 4 µM
- IC50 (CAL-72; Homo sapiens, CAL-72): > 4 µM
- IC50 (ChaGo-K-1; Homo sapiens, ChaGo-K-1): > 4 µM
- IC50 (KYSE-520 cell line; Homo sapiens, KYSE-520): > 4 µM
- IC50 (BT-20; Homo sapiens, BT-20): > 4 µM
- IC50 (NCI-H460; Homo sapiens, NCI-H460): 2.8 µM
- IC50 (OC-314; Homo sapiens, OC-314): > 4 µM
- IC50 (BHY; Homo sapiens, BHY): 1.81 µM
- IC50 (HuP-T4; Homo sapiens, HuP-T4): 0.195 µM
- IC50 (NUGC-3; Homo sapiens, NUGC-3): 1.2 µM
- IC50 (HT55; Homo sapiens, HT55): > 4 µM
